Counter-ions that a name gives are not always drawn.
Target: Ras GEF SOS (Son of Sevenless) (Homo sapiens, UniProt Q07889)
Test: SOS-mediated nucleotide exchange on Ras (BODIPY-GDP fluorescence)
Format: biochemical
Conditions: SOS-mediated exchange of BODIPY-GDP for GTP on Ras
Protocol: Compounds of the present invention were tested for their ability to modify the rate at which Ras exchanges a labeled nucleotide guanosine diphosphate (GDP) analog for guanosine triphosphate (GTP). Briefly, test compounds, then GTP and the Ras GEF SOS (Son of Sevenless) are added to a buffered solution containing Ras protein loaded with BODIPY-GDP. Changes in fluoresence indicating exchange of the labeled GDP for GTP are monitored over time. Raw fluorescence data was fit to a single exponential decay function and derived rates were plotted as mean values. EC50 values were calculated by plotting mean derived rates as a function of compound concentration and fit using a four-parameter dose-response curve. This assay is performed in a method analogous to the assay disclosed in: Burns, M. C.; Sun, Q.; Daniels, R. N.; Camper, D. V.; Kennedy, J. P.; Phan, J.; Olejniczak, E. O.; Lee, T.; Waterson, A. G.; Rossanese, O. W.; Fesik, S. W. “Approach for targeting Ras with small molecules that activate SOS-mediated nucleotide exchange” Proc. Natl. Acad. Sci. 2014; 11(9): 3401-3406. PMCID: PMC3948241.

Ras GEF SOS (Son of Sevenless), sequence (P01112 1-166 partner limits assumed, one chain of several): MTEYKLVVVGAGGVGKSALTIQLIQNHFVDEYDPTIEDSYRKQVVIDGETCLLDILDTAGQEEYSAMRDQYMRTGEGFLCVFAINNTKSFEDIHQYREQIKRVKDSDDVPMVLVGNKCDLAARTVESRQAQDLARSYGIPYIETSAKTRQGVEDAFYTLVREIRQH

Row | SMILES | EC50 [µM]
1 | CC(C)N1CC[C@@H](C(=O)c2ccccc2)[C@H]1c1cc(Cl)cc2c1nc(N1CCNCC1)n2Cc1ccc(F)c(Cl)c1 [Example 152, ((2S,3R)-2-(6-chloro-1-(3-chloro-4-fluorobenzyl)-2-(piperazin-1-yl)-1H-benzo[d]imidazol-4-yl)-1-isopropylpyrrolidin-3-yl)(phenyl)methanone trifluoroacetate] | 1 to 5
2 | COc1ccccc1C#Cc1ccccc1-c1cc(Cl)cc2c1nc(N1CCNCC1)n2Cc1cc(C)c(F)c(C)c1 [Example 186, 6-chloro-1-(4-fluoro-3,5-dimethylbenzyl)-4-(2-((2-methoxyphenyl)ethynyl)phenyl)-2-(piperazin-1-yl)-1H-benzo[d]imidazole trifluoroacetate] | 5 to 30
3 | Cc1cc2c(cc1C)N(Cc1cccc(Br)c1)C1=NCCCN12 [Example 215, 10-(3-bromobenzyl)-7,8-dimethyl-2,3,4,10-tetrahydrobenzo[4,5]imidazo[1,2-a]pyrimidine] | 5 to 30
4 | Cc1cc(Cn2c(NCCN)nc3c(-c4ccccc4)nccc32)ccc1F [Example 221, N^1-(1-(4-fluoro-3-methylbenzyl)-4-phenyl-1H-imidazo[4,5-c]pyridin-2-yl)ethane-1,2-diamine] | 30 to 100
5 | Cc1cc(Cn2c(NC3CCNC3)nc3c(-c4ccccc4)nccc32)ccc1F (stereo not drawn) [Example 222, 1-(4-fluoro-3-methylbenzyl)-4-phenyl-N-(pyrrolidin-3-yl)-1H-imidazo[4,5-c]pyridin-2-amine] | 5 to 30
6 | Cc1cc2c(nc(N3CCNCC3)n2Cc2ccc(F)c(C)c2)c(CN2CCCC2)n1 [Example 236, 1-(4-fluoro-3-methylbenzyl)-6-methyl-2-(piperazin-1-yl)-4-(pyrrolidin-1-ylmethyl)-1H-imidazo[4,5-c]pyridine] | 30 to 100
7 | Cc1cc2c(nc(N3CCNCC3)n2Cc2ccc(F)c(C)c2)c(CN2CCOCC2)n1 [Example 237, 4-((1-(4-fluoro-3-methylbenzyl)-6-methyl-2-(piperazin-1-yl)-1H-imidazo[4,5-c]pyridin-4-yl)methyl)morpholine] | 30 to 100
8 | Cc1cc2c(nc(N3CCNCC3)n2Cc2ccc(F)c(C)c2)c(CN2CCC(O)CC2)n1 [Example 238, 1-((1-(4-fluoro-3-methylbenzyl)-6-methyl-2-(piperazin-1-yl)-1H-imidazo[4,5-c]pyridin-4-yl)methyl)piperidin-4-ol] | 30 to 100
9 | Cc1cnc2ncn(Cc3ccc(F)c(Cl)c3)c2c1 [Example 243, 1-(3-chloro-4-fluorobenzyl)-6-methyl-1H-imidazo[4,5-b]pyridine] | 30 to 100
10 | NCCNc1nc2ncccc2n1Cc1ccc(F)cc1 [Example 250, N^1-(1-(4-fluorobenzyl)-1H-imidazo[4,5-b]pyridin-2-yl)ethane-1,2-diamine] | 5 to 30
11 | Fc1ccc(Cn2cnc3ncccc32)cc1 [Example 253, 1-(4-fluorobenzyl)-1H-imidazo[4,5-b]pyridine] | 30 to 100
12 | Clc1ccc(Cn2c(Cl)nc3ncccc32)cc1 [Example 254, 2-chloro-1-(4-chlorobenzyl)-1H-imidazo[4,5-b]pyridine] | 30 to 100
13 | Clc1ccc(Cn2cnc3ncccc32)cc1 [Example 255, 1-(4-chlorobenzyl)-1H-imidazo[4,5-b]pyridine] | 30 to 100
14 | Cc1cc2nc(NC3CCNCC3)n(Cc3ccc(F)c(Cl)c3)c2cc1C [Example 269, 1-[(3-chloro-4-fluorophenyl)methyl]-5,6-dimethyl-N-piperidin-4-ylbenzimidazol-2-amine] | 30 to 100
15 | Cc1ccc2nc([C@@H](N)C(C)C)n(Cc3cccc(Cl)c3)c2c1 [Example 270, (S)-1-(1-(3-chlorobenzyl)-6-methyl-1H-benzo[d]imidazol-2-yl)-2-methylpropan-1-amine] | 30 to 100
16 | Cc1ccc2nc([C@H](N)CO)n(Cc3cccc(Cl)c3)c2c1 [Example 271, (2S)-2-amino-2-[1-[(3-chlorophenyl)methyl]-6-methylbenzimidazol-2-yl]ethanol] | 30 to 100
17 | Cc1ccc2nc([C@@H](N)Cc3ccc(O)cc3)n(Cc3ccc(F)cc3)c2c1 [Example 272, 4-[(2S)-2-amino-2-[1-[(4-fluorophenyl)methyl]-6-methylbenzimidazol-2-yl]ethyl]phenol] | 30 to 100
18 | Cc1cc2nc(N3CCC(N)C3)n(Cc3ccc(F)c(Cl)c3)c2cc1C (stereo not drawn) [Example 289, 1-(1-(3-chloro-4-fluorobenzyl)-5,6-dimethyl-1H-benzo[d]imidazol-2-yl)pyrrolidin-3-amine] | 1 to 5
19 | Cc1cc(Cn2c(NCCN)nc3c(O)cccc32)ccc1F [Example 295, 2-((2-aminoethyl)amino)-1-(4-fluoro-3-methylbenzyl)-1H-benzo[d]imidazol-4-ol] | 5 to 30

More lines, now with the values ahead:

Row | EC50 [µM] | SMILES
20 | 5 to 30 | Cc1cc(Cn2c(N3CCNCC3)nc3c(-c4ccccc4)nccc32)ccc1F [Example 220, 1-(4-fluoro-3-methylbenzyl)-4-phenyl-2-(piperazin-1-yl)-1H-imidazo[4,5-c]pyridine]
21 | 30 to 100 | C=Cc1nc(C)cc2c1nc(N1CCNCC1)n2Cc1ccc(F)c(C)c1 [Example 239, 1-(4-fluoro-3-methylbenzyl)-6-methyl-2-(piperazin-1-yl)-4-vinyl-1H-imidazo[4,5-c]pyridine]
22 | 1 to 5 | Cc1cnc2nc(N3CCNCC3)n(Cc3ccc(F)c(Cl)c3)c2c1 [Example 242, 1-(3-chloro-4-fluorobenzyl)-6-methyl-2-(piperazin-1-yl)-1H-imidazo[4,5-b]pyridine]
23 | 5 to 30 | Cc1cnc2nc(N3CCNCC3)n(Cc3ccc(F)c(C)c3)c2c1 [Example 244, 1-(4-fluoro-3-methylbenzyl)-6-methyl-2-(piperazin-1-yl)-1H-imidazo[4,5-b]pyridine]
24 | 5 to 30 | Fc1ccc(Cn2c(N3CCNCC3)nc3ncccc32)cc1 [Example 249, 1-(4-fluorobenzyl)-2-(piperazin-1-yl)-1H-imidazo[4,5-b]pyridine]
25 | 5 to 30 | Cc1ccc2c(n1)nc(N1CCNCC1)n2Cc1ccc(F)c(Cl)c1 [Example 256, 1-(3-chloro-4-fluorobenzyl)-5-methyl-2-(piperazin-1-yl)-1H-imidazo[4,5-b]pyridine]
26 | 5 to 30 | Cc1ccc2c(n1)nc(NCCN)n2Cc1ccc(F)c(Cl)c1 [Example 257, N^1-(1-(3-chloro-4-fluorobenzyl)-5-methyl-1H-imidazo[4,5-b]pyridin-2-yl)ethane-1,2-diamine]
27 | 5 to 30 | Oc1ccc(-c2cccc3c2nc(N2CCNCC2)n3Cc2ccc(F)c(Cl)c2)cc1 [Example 264, 4-[1-[(3-chloro-4-fluorophenyl)methyl]-2-piperazin-1-ylbenzimidazol-4-yl]phenol]
28 | 5 to 30 | NCc1ccc2c(c1)nc(N1CCNCC1)n2Cc1ccc(F)c(Cl)c1 [Example 281, [1-[(3-chloro-4-fluorophenyl)methyl]-2-piperazin-1-ylbenzimidazol-5-yl]methanamine]

Target: T1, Son of Sevenless (SOS) (Homo sapiens, UniProt Q07889)
T1 sequence (Q07889 564-1049 limits assumed): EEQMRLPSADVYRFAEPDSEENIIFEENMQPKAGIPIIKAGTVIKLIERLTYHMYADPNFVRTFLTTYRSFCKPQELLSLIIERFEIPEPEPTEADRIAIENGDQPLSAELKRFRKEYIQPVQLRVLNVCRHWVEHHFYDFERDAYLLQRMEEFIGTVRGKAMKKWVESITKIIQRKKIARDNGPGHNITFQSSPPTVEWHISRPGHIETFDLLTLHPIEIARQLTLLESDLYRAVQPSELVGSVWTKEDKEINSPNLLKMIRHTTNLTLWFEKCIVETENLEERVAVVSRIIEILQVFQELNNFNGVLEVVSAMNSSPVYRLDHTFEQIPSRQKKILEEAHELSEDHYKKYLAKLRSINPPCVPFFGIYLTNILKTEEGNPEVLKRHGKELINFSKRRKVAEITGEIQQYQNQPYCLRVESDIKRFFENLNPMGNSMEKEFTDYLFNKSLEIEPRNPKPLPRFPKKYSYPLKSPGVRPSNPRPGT
Test: Binding to SOS, fluorescence polarization anisotropy (FPA) probe displacement
Conditions: displacement of FITC-conjugated probe (Example 285), affinity calculated from IC50
Protocol: Compounds of the present invention were tested for their ability to bind to the Ras guanine exchange factor (GEF) Son of Sevenless (SOS). Binding to SOS was measured using a Fluorescence polarization anisotropy (FPA) assay that assesses the ability of a test compound to displace a fluorescent FITC-conjugated compound (Example 285). Briefly, the labeled probe compound is incubated with SOS in buffer. Changes in anisotropy indicative of displacement of the labeled probe for a test compound are assessed over a dose range of test compound. Data was analyzed by plotting fluorescence anisotropy values as a function of compound concentration. IC50 values were determined using a four-parameter dose-response (variable slope) and binding affinities were calculated from this IC50 value. This assay is performed in a method analogous to the assay disclosed in: Burns, M. C.; Sun, Q.; Daniels, R. N.; Camper, D. V.; Kennedy, J. P.; Phan, J.; Olejniczak, E. O.; Lee, T.; Waterson, A. G.; Rossanese, O. W.; Fesik, S. W. “Approach for targeting Ras with small molecules that activate SOS-mediated nucleotide exchange” Proc. Natl. Acad. Sci. 2014; 11(9): 3401-3406. PMCID: PMC3948241.

Row | Ki [µM] | SMILES
29 | 0.5 to 1 | N[C@@H](Cc1ccccc1)c1cc(Cl)cc2c1nc(N1CCNCC1)n2Cc1ccc(F)c(Cl)c1 [Example 166, (S)-1-(6-chloro-1-(3-chloro-4-fluorobenzyl)-2-(piperazin-1-yl)-1H-benzo[d]imidazol-4-yl)-2-phenylethan-1-amine trifluoroacetate]
30 | 0.5 to 1 | COC(=O)c1cnn(CC(C)C)c1-c1cc(C)cc2c1nc(N1CCNCC1)n2Cc1ccc(F)c(Cl)c1 [Example 179, methyl 5-(1-(3-chloro-4-fluorobenzyl)-6-methyl-2-(piperazin-1-yl)-1H-benzo[d]imidazol-4-yl)-1-isobutyl-1H-pyrazole-4-carboxylate]

Reference: patent US10501421B1, “Substituted benzimidazoles as modulators of Ras signaling” (VANDERBILT UNIVERSITY, priority 2017, dated 2019)
